These results are taken from patent US9840478B2 (MERCK SHARP & DOHME CORP., priority 2013, dated 2017).

The test system of the first experiment is HIV-1 (H9IIIB strain). The experiment in a line: Cell-based HIV infection assay using a reporter (Cell-Based), MT4-GFP cells. Conditions: Human immunodeficiency virus 1, MT4-GFP cells infected with HIV-1 H9IIIB; 50% normal human serum; mean of at least two independent experiments; read-out: Cell-based IP. On the procedure:
Cell-Based HIV Infection Assay Using a Reporter (“Cell-Based”):
MT4-GFP cells contain a stably integrated HIV long terminal repeat promoter directing the transcription of green fluorescent protein (GFP). When HIV infects the cell, GFP is produced and the cell becomes green. MT4-GFP cells (250,000 cells/ml) were bulk-infected with HIV-1 (H9IIIB strain) at low multiplicity of infection (MOI) in RPMI media, supplemented with 10% FBS for 24 hours. Cells were then washed once in RPMI plus 10% FBS and resuspended in RPMI plus 50% normal human serum (NHS). Test compounds were serial-diluted in DMSO using an ECHO liquid dispenser. A control well included a combination of three HIV drugs (an inhibitor of HIV protease, integrase strand transfer and a non-nucleoside reverse transcriptase inhibitor; triple drug). The infected MT4-GFP cells were added to a 384-well poly-D-lysine coated black plate with clear bottom in which the diluted test compounds were placed. The cells were seeded in the plate at 8,000 cells per well and the final DMSO concentration was 0.4%. Infected cells were quantified at both 24 and 48 hours post incubation using an Acumen eX3 plate reader. Viral reproductive ratio (R0) was determined using the number of infected cells at 48 hours divided by the number of infected cells at 24 hours. Percent viral growth inhibition was calculated by [1−(R−Rtripledrug)/(RDMSO−Rtripledrug)]*100. Compound potency IP or IC50 was determined with use of a 4-parameter dose response curve analysis.
With `COC(=O)N[C@H](C(=O)Nc1cncc(F)c1CC[C@H]1CNC[C@H](C)N1S(=O)(=O)c1ccc(Cl)cc1)[C@@H](c1ccc(Cl)cc1)C1CCOCC1` [Example 282, (βR)-4-chloro-N-[4-(2-{(2S,6S)-1-[(4-chlorophenyl)sulfonyl]-6-methylpiperazin-2-yl}ethyl)-5-fluoropyridin-3-yl]-Nα-(methoxycarbonyl)-β-(tetrahydro-2H-pyran-4-yl)-L-phenylalaninamide], the IC50 was 11 nM.
Same read-out and setting: then `CC(C)[C@H](c1ccc(Cl)cc1)[C@H](N)C(=O)Nc1cccc(F)c1CC[C@H]1CNC[C@H](C)N1S(=O)(=O)c1ccc(OC(F)(F)F)cc1` [Example 140, (βR)-4-chloro-N-(3-fluoro-2-{2-[(2S,6S)-6-methyl-1-{[4-(trifluoromethoxy)phenyl]sulfonyl}piperazin-2-yl]ethyl}phenyl)-β-(1-methylethyl)-L-phenylalaninamide], with 250 nM.
`C[C@H]1CN(S(=O)(=O)c2ccccc2)[C@@H](CCc2c(F)cccc2NC(=O)CC(c2ccc(F)cc2)c2ccc(F)cc2)CN1` [Example 89, N-(3-fluoro-2-{2-[(2S,5S)-5-methyl-1-(phenylsulfonyl)piperazin-2-yl]ethyl}phenyl)-3,3-bis(4-fluorophenyl) propanamide]: the IC50 was 700 nM.
Same read-out and setting: then `C[C@H]1CNC[C@H](CCc2c(F)cccc2NC(=O)[C@@H](N)[C@@H](c2ccc(F)cc2)c2cc(F)cc(F)c2)N1S(=O)(=O)C1CC1` [Example 223, (βS)-N-(2-{2-[(2S,6S)-1-(cyclopropylsulfonyl)-6-methylpiperazin-2-yl]ethyl}-3-fluorophenyl)-β-(3,5-difluorophenyl)-4-fluoro-L-phenylalaninamide], with 36 nM; and `COC(=O)N[C@H](C(=O)Nc1cccc(F)c1CC[C@H]1CNC[C@H](C)N1S(=O)(=O)C1CC1)[C@@H](c1ccc(F)cc1)C1CCOCC1` [Example 115, (βR)-N-(2-{2-[(2S,6S)-1-(cyclopropylsulfonyl)-6-methylpiperazin-2-yl]ethyl}-3-fluorophenyl)-4-fluoro-Nα-(methoxycarbonyl)-β-(tetrahydro-2H-pyran-4-yl)-L-phenylalaninamide], with 45 nM; and `C[C@H]1CNC[C@H](CCc2c(F)cccc2NC(=O)[C@@H](N)[C@@H](c2cc(F)cc(F)c2)C2CCOCC2)N1S(=O)(=O)c1ccccc1` [Example 294, (βR)-3,5-difluoro-N-(3-fluoro-2-{2-[(2S,6S)-6-methyl-1-(phenylsulfonyl)piperazin-2-yl]ethyl}phenyl)-β-(tetrahydro-2H-pyran-4-yl)-L-phenylalaninamide], with 40 nM.
As for `C[C@@H]1CNC[C@H](CCc2c(F)cccc2NC(=O)[C@@H](N)[C@@H](c2ccc(F)cc2)c2cc(F)cc(F)c2)N1S(=O)(=O)c1ccccc1` [Example 94, (βS)-β-(3,5-difluorophenyl)-4-fluoro-N-(3-fluoro-2-{2-[(2S,6R)-6-methyl-1-(phenylsulfonyl)piperazin-2-yl]ethyl}phenyl)-L-phenylalaninamide], the IC50 came to 24 nM.
As for `COC(=O)N[C@H](C(=O)Nc1cccc(F)c1CC[C@H]1CNC[C@@H](C)N1S(=O)(=O)c1ccccc1)[C@@H](c1cccc(Cl)c1)C(C)C` [Example 208, (βR)-3-chloro-N-(3-fluoro-2-{2-[(2S,6R)-6-methyl-1-(phenylsulfonyl)piperazin-2-yl]ethyl}phenyl)-Nα-(methoxycarbonyl)-β-(1-methylethyl)-L-phenylalaninamide], the IC50 turned out to be 42 nM.
For the compound `COC(=O)N[C@H](C(=O)Nc1cccc(F)c1CC[C@H]1CNC[C@@H](C)N1S(=O)(=O)C1CC1)[C@@H](c1ccc(Cl)cc1)C(C)C` [Example 145, (βR)-4-chloro-N-(2-{2-[(2S,6R)-1-(cyclopropylsulfonyl)-6-methylpiperazin-2-yl]ethyl}-3-fluorophenyl)-Nα-(methoxycarbonyl)-β-(1-methylethyl)-L-phenylalaninamide], the IC50 was determined as 170 nM.
On to `COC(=O)N[C@H](C(=O)Nc1cccc(F)c1CC[C@H]1CNC[C@H](C)N1S(C)(=O)=O)[C@@H](c1ccc(F)cc1)c1cc(F)cc(F)c1` [Example 99, (βS)-β-(3,5-difluorophenyl)-4-fluoro-N-(3-fluoro-2-{2-[(2S,6S)-6-methyl-1-(methylsulfonyl)piperazin-2-yl]ethyl}phenyl)-Nα-(methoxycarbonyl)-L-phenylalaninamide], for which the IC50 was 16 nM.
Turning to `COC(=O)N[C@H](C(=O)Nc1cncc(F)c1CC[C@H]1CNCCN1S(=O)(=O)c1ccccc1)C1(c2ccc(Cl)cc2)CCOCC1` [Example 71, methyl {(1S)-1-[4-(4-chlorophenyl)tetrahydro-2H-pyran-4-yl]-2-[(5-fluoro-4-{2-[(2S)-1-(phenylsulfonyl)piperazin-2-yl]ethyl}pyridin-3-yl)amino]-2-oxoethyl} carbamate], the IC50 came out at 11 nM.
For the compound `C[C@H]1CNC[C@H](CCc2c(F)cccc2NC(=O)[C@@H](N)[C@@H](c2ccc(Cl)cc2)c2cc(F)cc(F)c2)N1S(=O)(=O)C1CC1` [Example 199, (βS)-4-chloro-N-(2-{2-[(2S,6S)-1-(cyclopropylsulfonyl)-6-methylpiperazin-2-yl]ethyl}-3-fluorophenyl)-β-(3,5-difluorophenyl)-L-phenylalaninamide], the IC50 worked out at 20 nM.
Regarding `N[C@H](C(=O)Nc1cncc(F)c1CC[C@H]1CNCCN1S(=O)(=O)N1CCCC1)[C@@H](c1ccc(F)cc1)c1cc(F)cc(F)c1` [Example 83, (βS)-3,5-difluoro-β-(4-fluorophenyl)-N-(5-fluoro-4-{2-[(2S)-1-(pyrrolidin-1-ylsulfonyl)piperazin-2-yl]ethyl}pyridin-3-yl)-L-phenylalaninamide], the IC50 was determined as 8.9 nM.
With `C[C@@H]1CNC[C@H](CCc2c(F)cccc2NC(=O)[C@@H](N)C2(c3ccc(F)c(F)c3)CCOCC2)N1S(=O)(=O)c1ccccc1` [Example 291, (2S)-2-amino-2-[4-(3,4-difluorophenyl)tetrahydro-2H-pyran-4-yl]-N-(3-fluoro-2-{2-[(2S,6R)-6-methyl-1-(phenylsulfonyl)piperazin-2-yl]ethyl}phenyl)ethanamide], the IC50 was 100 nM.
Turning to `C[C@@H]1CNC[C@H](CCc2c(F)cccc2NC(=O)[C@@H](N)C(c2cccc(F)c2)c2cccc(F)c2)N1S(=O)(=O)c1ccccc1` [Example 133, 3-fluoro-N-(3-fluoro-2-{2-[(2S,6R)-6-methyl-1-(phenylsulfonyl)piperazin-2-yl]ethyl}phenyl)-β-(3-fluorophenyl)-L-phenylalaninamide], the IC50 turned out to be 55 nM.
For `CC(C)OCC1CNC[C@H](CCc2c(F)cccc2NC(=O)[C@@H](N)[C@H](c2cccc(F)c2)c2cccc(Cl)c2)N1S(C)(=O)=O` (stereo partly drawn) [Example 242, (βR)-β-(3-chlorophenyl)-3-fluoro-N-(3-fluoro-2-{2-[(2S)-6-[(1-methylethoxy)methyl]-1-(methylsulfonyl)piperazin-2-yl]ethyl}phenyl)-L-phenylalaninamide], the IC50 was determined as 220 nM.
In the case of `N[C@H](C(=O)Nc1cccc(F)c1CCC1CNCCN1S(=O)(=O)c1ccccc1)C(c1cc(F)cc(F)c1)c1cc(F)cc(F)c1` (stereo partly drawn) [Example 34, β-(3,5-difluorophenyl)-3,5-difluoro-N-(3-fluoro-2-{2-[1-(phenylsulfonyl)piperazin-2-yl]ethyl}phenyl)-L-phenylalaninamide], the IC50 came to 16 nM.
On to `COC(=O)N[C@H](C(=O)Nc1cncc(F)c1CC[C@@H]1CNCCN1S(C)(=O)=O)[C@@H](c1ccc(F)cc1)c1cc(F)cc(F)c1` [Example 49, methyl ((1S,2S)-1-(3,5-difluorophenyl)-3-((5-fluoro-4-(2-((R)-1-(methylsulfonyl)piperazin-2-yl)ethyl)pyridin-3-yl)amino)-1-(4-fluorophenyl)-3-oxopropan-2-yl)carbamate], for which the IC50 turned out to be 1700 nM.
For the compound `COC(=O)N[C@H](C(=O)Nc1cccc(F)c1CC[C@H]1CNCCN1S(=O)(=O)c1ccccc1)[C@H](CCC1CCOCC1)c1ccc(Cl)c(F)c1` [Example 73, (βR)-4-chloro-3-fluoro-N-(3-fluoro-2-{2-[(2S)-1-(phenylsulfonyl)piperazin-2-yl]ethyl}phenyl)-Nα-(methoxycarbonyl)-β-[2-(tetrahydro-2H-pyran-4-yl)ethyl]-L-phenylalaninamide], the IC50 turned out to be 7.6 nM.
`C[C@H]1CNC[C@H](CCc2c(F)cncc2NC(=O)[C@@H](N)[C@@H](c2ccc(F)cc2)c2cc(F)cc(F)c2)N1S(=O)(=O)c1ccccc1Cl` [Example 245, (βS)-N-[4-(2-{(2S,6S)-1-[(2-chlorophenyl)sulfonyl]-6-methylpiperazin-2-yl}ethyl)-5-fluoropyridin-3-yl]-β-(3,5-difluorophenyl)-4-fluoro-L-phenylalaninamide]: the IC50 came out at 51 nM.

The same experiment, now with this note: MT4-GFP cells infected with HIV-1 H9IIIB; 50% normal human serum; mean of at least two independent experiments; read-out: Cell-based IP.
As for `COC(=O)NC(C(=O)NC1CC1CC[C@H]1CNCCN1S(=O)(=O)c1ccccc1)C(c1ccc(F)cc1)c1ccc(F)cc1` (single isomer, unassigned) [Example 363], the IC50 amounted to 370 nM.
